Data from patent US20090031455A1 (priority 2004, published 2009).

Experiments:
recombinant FaPINH = test: recombinant enzyme activity assay with yeast microsomes, GC-MS; settings: for hydroxylation of alternative substrates by PINH: position analogous to α-pinene C10 (C7), FIGS. 3-4
Description: Microsome preparations were evaluated by CO-difference spectrum and were assayed for (−)-α-pinene hydroxylation. The reaction mixture for the recombinant enzyme activity assay, in a final volume of 1 ml, contained 50 mM Tris-HCl pH 7.4, 1 mM EDTA, 0.1 mM DTT, 0.8 units glucose-6-phosphate dehydrogenase, 2 mM glucose 6-phosphate, 5 μM FAD, 5 μM FMN, 1 mM NADPH, and 200 μL of microsomal preparation. 200 nmol (−)-α-pinene (in less than 10 μl, which has no detectable influence on the reaction) were added to the mixture to start the reaction, which was allowed to proceed for 2 hours at 30° C. with gentle shaking. Microsomes isolated from cells harboring the empty vector were employed as controls. The reaction was stopped by chilling the mixture on ice and extracting twice with 1.0-mL portions of pentane:diethyl ether (4:1). The combined extract was passed through a short column of silica gel and anhydrous MgSO4, after which the column was washed with 1.5 mL diethyl ether to remove residual compounds. After concentration under N2, the samples were analyzed by GC-MS. Samples (2 μL) were analyzed by an automated injector on a Hewlett-Packard 5890 series II gas chromatograph equipped with a 30 m×0.25 mm inner diameter fused silica column coated with a 0.25 μm film of HP 5MS (Hewlett-Packard), and a Hewlett-Packard 5972A Mass Selective Detector. GC oven temperature was programmed at an initial temperature of 45° C. for 1 min, with a ramp of 10° C. min-1 to 280° C., and a final time of 10 min. Full spectra were recorded for major reaction products, which were identified by comparing retention times with authentic standards and by comparing spectra with those of the NSB75K library, using the G1033A NIST probability based matching algorithm.

plant pathogens = type: cell-based; settings: for antimicrobial effect compared with geraniol: data not shown; for antimicrobial effect compared with perilla alcohol: FIGS. 7-8
Pythium aphanidermatum = type: cell-based
Botrytis elliptica [1] = type: cell-based
Phytophthora infestans [2] = type: cell-based; settings: P. infestans; for inhibition of mycelial growth: FIG. 8
Botrytis elliptica [3] = type: cell-based; remark: listed apart in the source
Phytophthora infestans [4] = type: cell-based; settings: P. infestans; for inhibition of spore germination: FIG. 7
[5] = test system: PINH expressed in Saccharomyces cerevisiae; test: in vivo bioconversion assay with intact transgenic yeast cells expressing PINH; settings: 500 μM (−)-α-pinene, 2 h at 30° C.
Description: Transformants were selected on SGI medium, while expression was carried out in YPL medium (induction with 2% galactose) (Pompon et al., 1996). Intact cells were harvested and used for an in vivo assay, by incubation in 50 mM Tris-HCl buffer (pH 7.4) containing 0.1 mM DTT and 1 mM EDTA in the presence of 500 μM (−)-α-pinene. The reaction was allowed to proceed for 2 h at 30° C. with gentle shaking. Controls containing no substrate, and cells containing vector without insert, were also used for in vivo assays. The assays were extracted and analysed using GC-MS as described under Example 3.

## CC1=CC[C@H]2C[C@@H]1C2(C)C [(−)-α-pinene]
Recombinant FaPINH; (−)- versus (+)-α-pinene
  substrate preference between enantiomers: preferred to (+)-α-pinene

## CC(C)=CCCC(C)=CC=O [citral]
Plant pathogens
  antimicrobial effect compared with geraniol: more effective than geraniol

## CC(C)=CCC/C(C)=C/C(=O)O [geranic acid]
Plant pathogens
  antimicrobial effect compared with geraniol: more effective than geraniol

## C=C(C)[C@H]1CC=C(C)CC1 [limonene]
Recombinant FaPINH
  hydroxylation of alternative substrates by PINH: efficiently hydroxylated

## CC1(C)C2CC=C(CO)C1C2 (stereo not shown) [myrtenol]
Pythium aphanidermatum
  effectiveness against mycelial growth compared with linalool: less effective than linalool
  inhibition of mycelial growth: effectively inhibited
Botrytis elliptica [1]
  effectiveness against mycelial growth compared with linalool: slightly more effective than linalool
  inhibition of mycelial growth: effectively inhibited
Phytophthora infestans [2]
  effectiveness against mycelial growth compared with linalool: more effective than linalool
  inhibition of mycelial growth: effectively inhibited
Botrytis elliptica [3]
  inhibition of spore germination: effective inhibitors
Phytophthora infestans [4]
  inhibition of spore germination: effective inhibitors

## Cc1ccc(C(C)C)cc1 [p-cymene]
Recombinant FaPINH
  hydroxylation of alternative substrates by PINH: hydroxylated at C7

## C=C(C)[C@@H]1CC=C(CO)CC1 [perilla alcohol]
Pythium aphanidermatum
  effectiveness against mycelial growth compared with linalool: more effective
  inhibition of mycelial growth: effectively inhibited
Botrytis elliptica [1]
  effectiveness against mycelial growth compared with linalool: slightly more effective than linalool
  inhibition of mycelial growth: effectively inhibited
Phytophthora infestans [2]
  effectiveness against mycelial growth compared with linalool: more effective than linalool
  inhibition of mycelial growth: effectively inhibited
Botrytis elliptica [3]
  effectiveness against spore germination relative to linalool and myrtenol: about 2 fold
  inhibition of spore germination: effective inhibitors
Phytophthora infestans [4]
  inhibition of spore germination: effective inhibitors

## C=C(C)C1CC=C(C=O)CC1 (stereo not shown) [perilla aldehyde]
Pythium aphanidermatum
  effectiveness against mycelial growth compared with linalool: more effective
  inhibition of mycelial growth: effectively inhibited
Botrytis elliptica [1]
  effectiveness against mycelial growth compared with linalool: slightly more effective than linalool
  inhibition of mycelial growth: effectively inhibited
Phytophthora infestans [2]
  effectiveness against mycelial growth compared with linalool: more effective than linalool
  inhibition of mycelial growth: effectively inhibited
Phytophthora infestans [2]; more effective than linalool
  effectiveness against mycelial growth relative to linalool: 4-5 fold
Plant pathogens
  antimicrobial effect compared with perilla alcohol: more effective than perilla alcohol
Botrytis elliptica [3]
  effect on spore germination at the concentration tested: completely blocks germination
  inhibition of spore germination: effective inhibitors
Phytophthora infestans [4]
  inhibition of spore germination: effective inhibitors
Phytophthora infestans [4]; FIG. 7A, more effective than linalool
  effectiveness against spore germination relative to linalool: about 10 fold

## C=C(C)[C@@H]1CC=C(C(=O)O)CC1 [perillic acid]
Plant pathogens
  antimicrobial effect compared with perilla alcohol: more effective than perilla alcohol

## CC1=CC[C@H](C(C)C)C=C1 [α-phellandrene]
Recombinant FaPINH
  hydroxylation of alternative substrates by PINH: hydroxylated at the same position

## CC1=CCC2CC1C2(C)C (stereo not drawn) [α-pinene]
[5]
  conversion into myrtenol by intact yeast cells: efficiently converted
Recombinant FaPINH; microsomes from FaPINH expressing yeast, 2 hours at 30° C.
  substrate hydroxylated at C-10 to form myrtenol: over 50%

## CC1=CC=C(C(C)C)CC1 [α-terpinene]
Recombinant FaPINH
  hydroxylation of alternative substrates by PINH: hydroxylated at the same position

## CC1=CCC(=C(C)C)CC1 [α-terpinolene]
Recombinant FaPINH
  hydroxylation of alternative substrates by PINH: hydroxylated at the same position
